# According to US12630500B2, “Hexasubstituted radialene compounds and applications thereof” (THE UNIVERSITY OF NORTH CAROLINA AT CHARLOTTE, priority 2019, dated 2026):
# Legend:
# [1] = Cyclic voltammetry in water (GC working electrode, Ag/AgCl reference); type: physicochemical; conditions: for E^ox1/2 / ipc/ipa: in water
# Excerpt: FIG. 2A provides cyclic voltammograms of a hexasubstituted radialene dianion ([…]) using a glassy carbon (GC) working electrode, platinum auxiliary electrode, and Ag/AgCl reference electrode measured at various scan rates (10-700 mV/s) in water.
# (§1) Hexacyano[3] radialene was initially used as a model system to probe the efficacy of hexasubstituted radialenes as redox couples in pH 7 aqueous solutions. A prerequisite for a practical aqueous catholyte is a high oxidation potential that occurs within the electrochemical window of water. The electrochemistry of [C6(CN)6]^2− as a tetrabutylammonium (TBA) salt in organic solvents only. […] Using cyclic voltammetry (CV), it was first established that the one electron oxidation of the dianion to the radical anion occurs at a potential favorable for use as a catholyte for RFBs, 480 mV.
# (§2) This value was almost identical to the diffusion coefficients of hydrophilic ferrocene derivatives in neutral pH solutions of NaCl. […] Such chemical stability is essential for durable RFB electrolytes.
# [2] = Conductivity of aqueous solutions; type: physicochemical; conditions: for Conductivity: first value of the pair; for Conductivity (value in parentheses): not defined in the patent
# [3] = Aqueous solubility by UV/Vis spectroscopy; type: physicochemical; conditions: for Solubility / Radical Anion Solubility: aqueous; for Solubility: dianionic state (disodium salt); for Radical Anion Solubility: radical anionic state
# Description: One nitrile group was systematically substituted at a time in an effort to preserve the favorable oxidation potential of the redox couple. To this end, a series of asymmetric, ester-substituted, [3] radialene species (FIG. 3, Compounds 1-4) were prepared via the zwitterionic synthetic method. The aqueous solubilities of these compounds in both the dianionic and radical anionic states were determined using UV/Vis spectroscopy (Table 1).
# [4] = type: physicochemical
# Excerpt: as §1, §2
# Diester compound 3 was selected for further analysis due to its favorable solubility in both redox states and its adequate oxidation potential in water. Electrochemical studies of compound 3 were performed to gauge its stability and galvanostatic cycling performance in aqueous solution. […] This assuages concerns of the possibility of ester hydrolysis. Next, a symmetrical H-cell with a cation-exchange membrane separator was used for aqueous galvanostatic charge-discharge experiments (FIG. 4B). The compound 3 undergoes steady cycling over a period of 12 days (50 cycles). […] The higher relative capacity retention was ascribed to the asymmetry and non-planarity of the diester congener, which helps limit dimerization interactions.
# [5] = reported catholytes for neutral aqueous RFBs; cited from earlier work
# [6] = Cyclic voltammetry in water (GC working electrode, Ag/AgCl reference); type: physicochemical; conditions: Randles-Sevcik equation, scan rates 0-700 mV/s
# [7] = Stability in air and thermal stability; type: physicochemical
# Excerpt: Hexacyano[3] radialene (Na2C6(CN)6), compound 1 in FIG. 3, was synthesized at low temperatures, on a large scale, and in high yield (for example 45 g, 91%). This convenient synthesis uses inexpensive precursors (tetrachlorcyclopropene (TCCP) and malononitrile), reagents (sodium hydride), and solvent (glyme). […] Furthermore, this compound is stable in air, and can be sequentially oxidized in two single-electron transfers. The product of the first oxidation, radical anion the compound ·- is particularly persistent. […] Remarkably, the radical anion is thermally stable to above 180° C. The inherent stability of the compound and persistence of the radical anion ·- signifies that the redox couple is favorable for use in a RFB, a device in which long lifespan is required. Finally, aqueous solutions of the dianion are colorless, while the radical anion produces a deep blue color when dissolved. This is advantageous for visually following the charge-discharge characteristics of proposed RFBs.
Structure (SMILES),E^ox1/2 [1],ipc/ipa [1],"conductivity of aqueous solutions without supporting electrolyte ([2]; 0.1 M, without NaCl)",Conductivity [2],Conductivity (value in parentheses) [2],Solubility [3],Radical Anion Solubility [3],solubility in water ([3]; disodium salt),stability of dianion in water [4],oxidation potential [5],diffusion coefficient for the electron transfer process [6],"potential of one electron oxidation of dianion to radical anion ([1]; cyclic voltammetry, aqueous pH 7)",stability in air ([7]; dianion compound),thermal stability of radical anion ([7]; radical anion),"storage of radical anion in air ([7]; radical anion, isolated via chemical oxidation)",solubility in water ([3]; dianion),stability in aqueous solutions ([4]; pH 7),change in peak current height on standing ([4]; solutions of dianion and radical anion left five days)
"COC(=O)[C-](C#N)C1=C([C-](C#N)C(=O)OC)C1=C(C#N)C#N.[Na+].[Na+] (stereo not drawn) [Compound 3, diester-tetracyano [3] radialene dianion]",0.35 V,1.06,sufficiently conductive,36.7 mS/cm,(23.2) mS/cm,450 mM,170 mM,850 mM,stable in water,,,,,,,,,
CC1(C)CC(O)CC(C)(C)N1[O] [4-hydroxy-TEMPO],,,,,,,,,,610 mV,,,,,,,,
COC(=O)C(C#N)=C1C([C-](C#N)C(=O)OC)=C1[C-](C#N)C(=O)OC.[Na+].[Na+] (stereo not drawn) [Compound 4],0.27 V,1.15,,39 mS/cm,(0.23) mS/cm,820 mM,<25 mM,,,,,,,,,,,
"N#CC(C#N)=C1C([C-](C#N)C#N)=C1[C-](C#N)C#N.[Na+].[Na+] [Compound 1, Hexacyano[3] radialene (Na2C6(CN)6)]",0.48 V,1.03,,13.2 mS/cm,(0.147) mS/cm,<100 mM,<25 mM,,,,3.71×10^−6 cm^2/s,480 mV,stable in air,above 180 °C,stored in air indefinitely,25 mM,stable,no significant changes in peak current height
COC(=O)C(C#N)=C1C([C-](C#N)C#N)=C1[C-](C#N)C#N.[Na+].[Na+] [Compound 2],0.4 V,0.97,,15.7 mS/cm,(2.36) mS/cm,190 mM,80 mM,,,,,,,,,,,
